From patent publication US9890166B2, “Imidazopyrrolidine derivatives and their use in the treatment of disease” (NOVARTIS AG, priority 2013, dated 2018)

What was measured:
[1] = target: CREBBP bromodomain (His-CREBBP(1081-1197)) (Homo sapiens (Human), UniProt Q92793); experiment: AlphaScreen in-vitro binding assay for CREBBP; conditions: single determination or n ≧ 2 independent determinations, read-out: Biochemical IC50 CREBBP
Method in brief: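 Reactions at 30 °C for 35 min, then Ni-chelate acceptor and streptavidin donor beads in HEPES pH 7.5, NaCl, Tween20, BSA, 60 min at room temperature. Eight-point compound series; IC50 by non-linear regression of percent inhibition.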

K-562 cells = experiment: Cell growth inhibition assay (CellTiter-Glo), K-562; conditions: for GI50: Homo sapiens, K562, read-out: K-562 GI50; for K-562 TGI: K-562 cells, total growth inhibition, CellTiter-Glo;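 for all read-outs here: cellular ATP measured by luminescence after 4 days of exposure, 3-fold dilution series from 10 µM, DMSO vehicle-treated cells define 100%, cell-free medium wells −100%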
BRD2 (His-Brd2(60-472)) = BRD2 (His-Brd2(60-472)) (Homo sapiens (Human), UniProt P25440); experiment: TR-FRET in-vitro binding assay for BRD2; conditions: single determination or n ≧ 2 independent determinations, read-out: Biochemical IC50 BRD2
Sequence of BRD2 (His-Brd2(60-472)) (P25440 60-472): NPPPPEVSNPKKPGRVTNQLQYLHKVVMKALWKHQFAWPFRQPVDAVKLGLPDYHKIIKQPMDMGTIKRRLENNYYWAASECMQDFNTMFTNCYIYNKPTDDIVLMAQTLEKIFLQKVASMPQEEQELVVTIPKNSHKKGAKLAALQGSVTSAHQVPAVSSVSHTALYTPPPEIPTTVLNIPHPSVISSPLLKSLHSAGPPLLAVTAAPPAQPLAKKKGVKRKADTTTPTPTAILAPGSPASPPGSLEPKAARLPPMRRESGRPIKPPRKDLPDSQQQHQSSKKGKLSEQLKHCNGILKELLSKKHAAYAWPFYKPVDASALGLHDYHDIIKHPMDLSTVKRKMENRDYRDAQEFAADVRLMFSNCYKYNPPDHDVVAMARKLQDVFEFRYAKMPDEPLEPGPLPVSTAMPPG
Method in brief: (§1)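 TR-FRET binding with His-tagged bromodomain constructs, 8-point compound dilutions from 10 mM DMSO stocks. Reactions incubated 35 min at 30° C in 13.55 μL, read on an EnVision multilabel reader.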

THP-1 cells = experiment: Cell growth inhibition assay (CellTiter-Glo), THP-1; conditions: for GI50: Homo sapiens, THP-1, read-out: THP-1 GI50; for THP-1 TGI: THP-1 cells, total growth inhibition, CellTiter-Glo;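 for all read-outs here: viability read as cellular ATP luminescence after 4 days, 3-fold dilution series from 10 µM, DMSO vehicle-treated cells taken as 100%, cell-free medium wells as −100%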
BRD3 (His-Brd3(20-477)) = BRD3 (His-Brd3(20-477)) (Homo sapiens (Human), UniProt Q15059); experiment: TR-FRET in-vitro binding assay for BRD3; conditions: single determination or n ≧ 2 independent determinations, read-out: Biochemical IC50 BRD3
Sequence of BRD3 (His-Brd3(20-477)) (Q15059 20-477): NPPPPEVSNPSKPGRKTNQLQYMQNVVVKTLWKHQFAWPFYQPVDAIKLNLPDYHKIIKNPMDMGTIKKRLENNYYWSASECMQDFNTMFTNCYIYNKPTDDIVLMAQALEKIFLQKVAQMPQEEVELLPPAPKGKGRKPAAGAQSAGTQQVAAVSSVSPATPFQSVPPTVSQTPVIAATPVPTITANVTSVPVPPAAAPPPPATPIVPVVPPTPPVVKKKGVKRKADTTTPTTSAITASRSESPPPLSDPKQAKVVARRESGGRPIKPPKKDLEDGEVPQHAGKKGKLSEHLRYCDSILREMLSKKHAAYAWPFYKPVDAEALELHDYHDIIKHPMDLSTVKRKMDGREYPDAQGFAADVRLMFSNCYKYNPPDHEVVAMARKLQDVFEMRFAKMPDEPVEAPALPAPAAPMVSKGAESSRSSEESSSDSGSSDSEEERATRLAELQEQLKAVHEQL
Method in brief: as §1

MV-4-11 cells = experiment: Cell growth inhibition assay (CellTiter-Glo), MV-4-11; conditions: for GI50: Homo sapiens, MV4-11, read-out: MV-4-11 GI50; for MV-4-11 TGI: MV-4-11 cells, total growth inhibition, CellTiter-Glo;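 for all read-outs here: cellular ATP luminescence after 4 days, 3-fold dilution series from 10 µM top dose, vehicle (0.1% DMSO) set to 100%, cell-free medium set to −100%, day 0 corrected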
BRD4 (His-Brd4(44-477)) = BRD4 (His-Brd4(44-477)) (Homo sapiens (Human), UniProt O60885); experiment: TR-FRET in-vitro binding assay for BRD4; conditions: single determination or n ≧ 2 independent determinations, read-out: Biochemical IC50 BRD4
Method in brief: as §1

Sequence of CREBBP bromodomain (His-CREBBP(1081-1197)) (Q92793 1081-1197): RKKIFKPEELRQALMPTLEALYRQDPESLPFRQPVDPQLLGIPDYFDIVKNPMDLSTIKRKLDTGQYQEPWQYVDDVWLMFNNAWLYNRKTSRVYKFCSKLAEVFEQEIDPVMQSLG

| SMILES | IC50 [1] [nM] | GI50 (K-562 cells) [nM] | K-562 TGI (K-562 cells) [nM] | IC50 (BRD2 (His-Brd2(60-472))) [nM] | GI50 (THP-1 cells) [nM] | THP-1 TGI (THP-1 cells) [nM] | IC50 (BRD3 (His-Brd3(20-477))) [nM] | GI50 (MV-4-11 cells) [nM] | MV-4-11 TGI (MV-4-11 cells) [nM] | IC50 (BRD4 (His-Brd4(44-477))) [nM] |
| --- | --- | --- | --- | --- | --- | --- | --- | --- | --- | --- |
| Cc1cc(N2C(=O)c3nc(C4CCOCC4)n(C(C)C)c3[C@H]2c2ccc(Cl)cc2)nn2c(C)nnc12 [Example 102, (R)-6-(4-chlorophenyl)-5-(3,8-dimethyl-[1,2,4]triazolo[4,3-b]pyridazin-6-yl)-1-isopropyl-2-(tetrahydro-2H-pyran-4-yl)-5,6-dihydropyrrolo[3,4-d]imidazol-4(1H)-one] | 17400 | 13.4 | >10000 | 20 | 2.95 | 10.51 | 17 | 1.38 | 4.435 | 15 |
| Cc1cc(N2C(=O)c3nc(C4=CCOCC4)n(C(C)C)c3[C@H]2c2ccc(Cl)cc2)nn2c(C)nnc12 [Example 103, (R)-6-(4-chlorophenyl)-2-(3,6-dihydro-2H-pyran-4-yl)-5-(3,8-dimethyl-[1,2,4]triazolo[4,3-b]pyridazin-6-yl)-1-isopropyl-5,6-dihydropyrrolo[3,4-d]imidazol-4(1H)-one] | > 37000 | 12.4 | >10000 | < 11 | 3.47 | 10.55 | < 11 | 2.09 | 3.945 | < 11 |
| Cc1cc(N2C(=O)c3nc(C4CCN(CC(C)(C)C)CC4)n(C(C)C)c3C2c2ccc(Cl)cc2)cn2c(C)nnc12 (centres unmarked) [Example 104, 6-(4-chlorophenyl)-5-(3,8-dimethyl-[1,2,4]triazolo[4,3-a]pyridin-6-yl)-1-isopropyl-2-(1-neopentylpiperidin-4-yl)-5,6-dihydropyrrolo[3,4-d]imidazol-4(1H)-one] | 2800 | 53.4 | >10000 | 41 | 21.2 | 53.95 | 33 | 8.21 | 18.7 | 24.5 |
| Cc1cc(N2C(=O)c3ncn(C(C)C)c3C2c2ccc(Cl)cc2)cc2c1nnn2C (centres unmarked) [Example 106, 6-(4-chlorophenyl)-5-(1,4-dimethyl-1H-benzo[d][1,2,3]triazol-6-yl)-1-isopropyl-5,6-dihydropyrrolo[3,4-d]imidazol-4(1H)-one] | 7200 | 92.5 | >10000 | 90 | 50.1 | 86.8 | 41.5 | 19.3 | 34.7 | 40.5 |
| Cc1cc(N2C(=O)c3nc(C4CC4)n(C(C)C)c3[C@H]2c2ccc(Cl)cc2)cn2c(C)nnc12 [Example 107, (R)-6-(4-chlorophenyl)-2-cyclopropyl-5-(3,8-dimethyl-[1,2,4]triazolo[4,3-a]pyridin-6-yl)-1-isopropyl-5,6-dihydropyrrolo[3,4-d]imidazol-4(1H)-one] | 1450 | 41.8 | >10000 | 28 | 11.2 | 23.75 | 23 | 4.84 | 9.71 | 23 |
| COc1cc(N2C(=O)c3nc(C4CCOCC4)n(C(C)C)c3[C@H]2c2ccc(Cl)cc2)cc2c1nnn2C [Example 108] | 9750 | 132 | >10000 | 180 | 47.4 | 113 | 74 | 20.7 | 42.95 | 61 |
| Cc1cc(N2C(=O)c3nc(C)n(C(C)C)c3[C@H]2c2ccc(Cl)cc2)cc2c1nnn2C [Example 109, (R)-6-(4-chlorophenyl)-5-(3,7-dimethyl-3H-benzo[d][1,2,3]triazol-5-yl)-1-isopropyl-2-methyl-5,6-dihydropyrrolo[3,4-d]imidazol-4(1H)-one] | 4350 | 52 | >10000 | 38 | 11.9 | 35.8 | 19 | 6.29 | 15.35 | 22 |
| Cc1cc(N2C(=O)c3nc(C)n(C(C)C)c3[C@H]2c2ccc(Cl)cc2)nn2c(C)nnc12 [Example 110, (R)-6-(4-chlorophenyl)-5-(3,8-dimethyl-[1,2,4]triazolo[4,3-b]pyridazin-6-yl)-1-isopropyl-2-methyl-5,6-dihydropyrrolo[3,4-d]imidazol-4(1H)-one] | 35900 | 30.6 | >10000 | 12 | 6.94 | 21.6 | < 11 | 4.48 | 11 | < 11 |
| COc1ncccc1-c1nc2c(n1C(C)C)[C@@H](c1ccc(Cl)cc1)N(c1cc(OC)c3nnn(C)c3c1)C2=O [Example 111] | 8900 | 90.1 | >10000 | 33 | 40.2 | 92.1 | 20 | 18.6 | 44.65 | 14 |
| COc1ccc(-c2nc3c(n2C(C)C)C(c2ccc(Cl)cc2)N(c2cc(OC)c4nnn(C)c4c2)C3=O)cn1 (centres unmarked) [Example 113, 6-(4-chlorophenyl)-1-isopropyl-5-(4-methoxy-1-methyl-1H-benzo[d][1,2,3]triazol-6-yl)-2-(6-methoxypyridin-3-yl)-5,6-dihydropyrrolo[3,4-d]imidazol-4(1H)-one] | > 37000 | 358 | >10000 | 100 | 171 | 359.5 | 102 | 125 | 186 | 200 |
| COc1ccc(-c2nc3c(n2C(C)C)[C@@H](c2ccc(Cl)cc2)N(c2cc(OC)c4nnn(C)c4c2)C3=O)cn1 [Example 114, (R)-6-(4-chlorophenyl)-1-isopropyl-5-(4-methoxy-1-methyl-1H-benzo[d][1,2,3]triazol-6-yl)-2-(6-methoxypyridin-3-yl)-5,6-dihydropyrrolo[3,4-d]imidazol-4(1H)-one] | 12900 | 268 | >10000 | 87 | 118 | 300.5 | 100 | 77.7 | 158.5 | 38 |
| COc1ncc(-c2nc3c([nH]2)C(c2ccc(Cl)cc2)N(c2cc(C)c4nnc(C)n4c2)C3=O)c(OC)n1 (centres unmarked) [Example 124, 6-(4-chlorophenyl)-2-(2,4-dimethoxypyrimidin-5-yl)-5-(3,8-dimethyl-[1,2,4]triazolo[4,3-a]pyridin-6-yl)-5,6-dihydropyrrolo[3,4-d]imidazol-4(1H)-one] | 3800 | 257 | >10000 | 94 | 66.3 | 134.5 | 39 | 56.2 | 96.75 | 38 |
| COc1ccc(-c2nc3c([nH]2)[C@@H](c2ccc(Cl)cc2)N(c2cc(OC)c4nnc(C)n4c2)C3=O)cn1 [Example 126, (R)-6-(4-chlorophenyl)-5-(8-methoxy-3-methyl-[1,2,4]triazolo[4,3-a]pyridin-6-yl)-2-(6-methoxypyridin-3-yl)-5,6-dihydropyrrolo[3,4-d]imidazol-4(1H)-one] | 25900 | 2270 | >10000 | 385 | 947 | 1700 | 283 | 408 | 592 | 104 |
| COc1ncc(-c2nc3c([nH]2)[C@@H](c2ccc(Cl)cc2)N(c2cc(OC)c4nnc(C)n4c2)C3=O)c(OC)n1 [Example 128, (R)-6-(4-chlorophenyl)-2-(2,4-dimethoxypyrimidin-5-yl)-5-(8-methoxy-3-methyl-[1,2,4]triazolo[4,3-a]pyridin-6-yl)-5,6-dihydropyrrolo[3,4-d]imidazol-4(1H)-one] | 16400 | 1230 | >10000 | 220 | 371 | 947 | 136 | 188 | 350.5 | 84.5 |
